{
  "source": "patent US20100298251A1",
  "about": "“WOUND-HEALING AGENT CONTAINING MOMORDICAE SEMEN EXTRACT” (priority 2007, published 2010)",
  "system": "wounded mouse skin",
  "assay": "Wound-healing effect in wounded skin mouse model (topical, once daily for 10 days)",
  "type": "in vivo",
  "key": {"[1]": {"conditions": "group mean (X, 5 mice), topical x10, dose/mouse: extract 50 μg, fraction 3 10 μg, saponin I 5 μg, CGS-21680 10 μg"}, "[2]": {"conditions": "group mean (X, 5 mice), topical x10, dose/mouse: extract 50 μg, fraction 3 10 μg, saponin I 5 μg, CGS-21680 10 μg, * P<0.05 vs vehicle"}, "[3]": {"conditions": "individual mouse (N 1-5), same doses as group means"}},
  "note": "Several values for one entry are separate records, joined by “and”; a condition that tells them apart may be missing. Identical values can stand only once.",
  "protocol": "Thus prepared test materials(20 μl) were topically applied on the wounded mouse skin, once daily for 10 consecutive days.\nAs a positive control drug, CGS-21680 (Tocris, USA) was prepared same as the above, and topically administered at a dosage of 10 μg/20 μl, once daily for 10 consecutive days.\nTwenty-five male mice of CD-1 origin having 24 g±2 g of body weight were divided into 5 groups. The mice were put into separate cages. After anesthesia with hexobarbital (90 mg/kg, IP), the furs on the shoulders and the backs of the mice were shaved. A portion of skin including a muscle layer beneath the skin and a tissue attached thereof was cut off by using a sharp punch (ID12 mm). After being wounded on the skin, the mice were administered topically with the test materials of Momordicae semen extract, Momordica saponin I fraction 3, Momordica saponin I, and CGS-21680 were, respectively, at a concentration of 50, 10, 5, and 10 μg/20 μl, respectively, once daily for 10 consecutive days.\nThe area of wounded skin detected on a transparent plastic sheet was measured using Image-ProPlus (Media Cybernetics, Version 4.5.0.29) on day 1, 3, 5, 7, 9, and 11. […] The Dunnett's test was performed after one-way analysis of variance (one-way ANOVA), in order for the comparison between the treated group and the vehicle group at each measuring point. The difference was of statistical significance at P<0.05.",
  "data": [
    {"smiles": "CC1OC(OC2C(O)C(C(=O)O)OC(OC3CCC4(C)C(CCC5(C)C4CC=C4C6CC(C)(C)CCC6(C(=O)OC6OC(C)C(O)C(O)C6OC6OC(C)C(OC7OCC(O)C(O)C7O)C(OC7OC(CO)C(O)C(OC8OCC(O)C(O)C8O)C7O)C6O)CCC45C)C3(C)C=O)C2OC2OC(CO)C(O)C(O)C2O)C(O)C(O)C1O", "note": "[Momordica Saponin I, 3-O-beta-D-Galactopyranosyl (1->2)-[alpha-L-rhamnopyranosyl (1->3)]-beta-D-glucuronopyranosido-28-O-beta-D-xylopyranosyl (1->3)-beta-D-glucopyranosyl (1->3)-[beta-D-xylopyranosyl (1->4)]-alpha-L-rhamnopyranosyl (1->2)-beta-D-fucopyranosyl gypsogenin]", "values": [
      {"measurement": "Wound Closure Rate (%) Day 1", "setting": "[1]", "value": 0.0, "unit": "%"},
      {"measurement": "Wound Closure Rate (%) Day 3", "setting": "[2]", "value": "*40.1%"},
      {"measurement": "Wound Closure Rate (%) Day 5", "setting": "[2]", "value": "*53.0%"},
      {"measurement": "Wound Closure Rate (%) Day 7", "setting": "[2]", "value": "*66.1%"},
      {"measurement": "Wound Closure Rate (%) Day 9", "setting": "[2]", "value": "*77.3%"},
      {"measurement": "Wound Closure Rate (%) Day 11", "setting": "[2]", "value": "*83.4%"},
      {"measurement": "CT50 (time required for wound closure)", "setting": "[2]", "value": "*5.6 Days"},
      {"measurement": "Wound Closure Rate (%) Day 1", "setting": "[3]", "value": 0.0, "unit": "%"},
      {"measurement": "Wound Closure Rate (%) Day 3", "setting": "[3]", "value": "32.9% and 45.4% (2×) and 31.2% and 45.6%"},
      {"measurement": "Wound Closure Rate (%) Day 5", "setting": "[3]", "value": "54.4% and 54.8% and 48.8% and 51.4% and 55.5%"},
      {"measurement": "Wound Closure Rate (%) Day 7", "setting": "[3]", "value": "69.9% and 71.5% and 58.8% and 62.9% and 67.5%"},
      {"measurement": "Wound Closure Rate (%) Day 9", "setting": "[3]", "value": "80.8% and 80.4% and 69.4% and 75.6% and 80.5%"},
      {"measurement": "Wound Closure Rate (%) Day 11", "setting": "[3]", "value": "85.0% and 88.3% and 78.1% and 84.6% and 81.1%"},
      {"measurement": "CT50 (time required for wound closure)", "setting": "[3]", "value": "5.5 days and 5.2 days and 6.3 days and 5.6 days and 5.3 days"},
      {"measurement": "wound-healing effect", "setting": "overall statement on Table 2 and FIG. 1", "value": "superior wound-healing effects"}
    ]},
    {"smiles": "CCNC(=O)[C@H]1O[C@@H](n2cnc3c(N)nc(NCCc4ccc(CCC(=O)O)cc4)nc32)[C@H](O)[C@@H]1O", "note": "[CGS-21680, reference compound]", "values": [
      {"measurement": "Wound Closure Rate (%) Day 1", "setting": "[1]", "value": 0.0, "unit": "%"},
      {"measurement": "Wound Closure Rate (%) Day 3", "setting": "[2]", "value": "*45.1%"},
      {"measurement": "Wound Closure Rate (%) Day 5", "setting": "[2]", "value": "*58.5%"},
      {"measurement": "Wound Closure Rate (%) Day 7", "setting": "[2]", "value": "*68.5%"},
      {"measurement": "Wound Closure Rate (%) Day 9", "setting": "[2]", "value": "*79.0%"},
      {"measurement": "Wound Closure Rate (%) Day 11", "setting": "[2]", "value": "*83.1%"},
      {"measurement": "CT50 (time required for wound closure)", "setting": "[2]", "value": "*5.2 Days"},
      {"measurement": "Wound Closure Rate (%) Day 1", "setting": "[3]", "value": 0.0, "unit": "%"},
      {"measurement": "Wound Closure Rate (%) Day 3", "setting": "[3]", "value": "46.7% (2×) and 36.0% and 54.4% and 41.6%"},
      {"measurement": "Wound Closure Rate (%) Day 5", "setting": "[3]", "value": "62.5% and 59.3% and 55.5% and 59.6% and 55.8%"},
      {"measurement": "Wound Closure Rate (%) Day 7", "setting": "[3]", "value": "71.2% and 66.5% and 62.7% and 71.8% and 70.3%"},
      {"measurement": "Wound Closure Rate (%) Day 9", "setting": "[3]", "value": "79.9% and 74.7% and 79.7% and 81.6% and 79.2%"},
      {"measurement": "Wound Closure Rate (%) Day 11", "setting": "[3]", "value": "85.6% and 84.6% and 78.3% and 82.9% and 84.3%"},
      {"measurement": "CT50 (time required for wound closure)", "setting": "[3]", "value": "5.0 days and 5.6 days and 5.2 days and 5.1 days and 5.3 days"}
    ]}
  ]
}
